What was measured:
EhELO1 = test: Elongation efficiency on fatty acid substrates by EhELO1 expressed in Saccharomyces cerevisiae (in vivo activity assay); assay type: cell-based, Eranthis hyemalis; settings: for Elongation efficiency (%): yeast INVSc1 transformant with EhELO1/pHVX2, 0.25 mM free fatty acid substrate with tergitol, 20° C. for 2 days, calculated from peak area of FAMEs, means of four replicates with standard deviation; for Substrate preference of EhELO1 (in words): yeast transformant expressing EhELO1, comparison among supplied substrates
Experimental: To define the diverse activity of the discovered elongase (EhELO1) from winter aconite, a variety of possible common fatty acids and unusual fatty acids that differ in the number and position of double bonds as well as in the chain length was exogenously supplied to the yeast transformant expressing the elongase EhELO1 for in vivo activity assays. The conversion of substrates to products was measured and used for the comparison of elongation efficiencies among fatty acid substrates.
The EhELO1 coding sequence was released from plasmid, EhELO1/pYES2.1 and sub-cloned into another yeast expression vector pHVX2 under the control of phosphoglycerate kinase 1 constitutive promoter, giving a plasmid EhELO1/pHVX2. The recombinant plasmid was transformed into Saccharomyces cerevisiae INVSc1. The yeast transformants with either EhELO1 or empty vector pHVX2 were grown at 30° C. for 1 day. The overnight cultures were diluted to an OD600 of 0.1 in the same medium supplemented with or without 0.25 mM of various free fatty acids in the presence of tergitol. After incubation at 20° C. for 2 days, yeast cells were harvested and washed once with tergitol and once with water. Total fatty acids in yeast transformants were converted to FAMES by an acid transmethylation process and analyzed by gas chromatography.

CtELO6 = test: Elongation of fatty acid by elongase CtELO6 studied in yeast, Saccharomyces cerevisiae; assay type: cell-based, Conidiobolus thromboides
From the text: Accordingly, it is expected that the production of 20:2:11,14 by CtELO6 in plants may provide increased substrate for EhELO1, providing enhanced production of DDA in plants expressing both CtELO6 and EhELO1.

Compound	Elongation efficiency (%) (EhELO1)	Substrate preference of EhELO1 (in words) (EhELO1)	elongation efficiency (CtELO6)
CC/C=C\C/C=C\C/C=C\CCCCCCCC(=O)O [18:3-9, 12, 15, linolenic acid]	54.7 ± 0.83		
CCCCCCCC/C=C\CCCCCCCC(=O)O [18:1-9]	3.3 ± 0.07		
CCCCCCCC/C=C\CCCCCCCCCCCC(=O)O [22:1-13]	0.0 ± 0.0		
CC/C=C\C/C=C\C/C=C\C/C=C\C/C=C\CCCCCC(=O)O [22:5-7, 10, 13, 16, 19]	31.9 ± 0.19		
CC/C=C\C/C=C\C/C=C\C/C=C\CCCCC(=O)O [18:4-6,9, 12, 15]	25.0 ± 0.37		
CCCCC/C=C\C/C=C\C/C=C\C/C=C\CCCC(=O)O [20:4-5,8, 11, 14, arachidonic acid]	36.2 ± 0.92		
CC/C=C\C/C=C\C/C=C\C/C=C\CCCCCCC(=O)O [20:4-8, 11, 14, 17]	50.3 ± 0.53		
CCCCC/C=C\C/C=C\C/C=C\CCCCCCC(=O)O [20:3-8, 11, 14]	46.4 ± 1.44		
CCCCC/C=C\C/C=C\C/C=C\CCCCC(=O)O [18:3-6,9, 12, γ-linolenic acid]	28.3 ± 1.95		
CCCCCCCCC=CCCCCCCCCCC(=O)O [20:1-11]	12.6 ± 0.23		
CCCCCC/C=C\CCCCCCCCCC(=O)O [18:1-11]	49.4 ± 1.79	highly active	
CCCCC/C=C\C/C=C\CCCCCCCC(=O)O [18:2-9, 12, linoleic acid]	44.6 ± 3.26		more than 20%
CCC=CCC=CCC=CCC=CCCCCCCCCC(=O)O [22:4-10, 13, 16, 19]	32.7 ± 0.49		
CC/C=C\C/C=C\C/C=C\C/C=C\C/C=C\C/C=C\CCC(=O)O [22:6-4,7, 10, 13, 16, 19, docosahexaenoic acid]	10.8 ± 0.52		
CCCCC/C=C\C/C=C\C/C=C\C/C=C\CCCCCC(=O)O [22:4-7, 10, 13, 16]	20.5 ± 0.37		
CC/C=C\C/C=C\C/C=C\CCCCCCCCCC(=O)O [20:3-11, 14, 17]	61.8 ± 0.35	most preferred	
CC/C=C\C/C=C\C/C=C\C/C=C\C/C=C\CCCC(=O)O [20:5-5,8, 11, 14, 17, eicosapentaenoic acid]	39.8 ± 0.43		
CC/C=C\C/C=C\C/C=C\CCCCCCCCCCCC(=O)O [22:3-13, 16, 19, docosatrienoic acid]	9.7 ± 0.13		
CCCCC/C=C\C/C=C\CCCCCCCCCCCC(=O)O [22:2-13, 16, docosadienoic acid]	3.4 ± 0.17		
CCCCC/C=C\C/C=C\CCCCCCCCCC(=O)O [20:2-11, 14, eicosadienoic acid]	48.5 ± 2.12		
